Test results reported in PubChem BioAssay AID248 (DTP/NCI, 2004).
“And” between values parts separate entries of the source, which are not always exact repeats. Equal values may be shown once. Toxic doses and inconclusive results are not listed. No stated cut-off is given here; in the data, active means T/C of 150% or more; inactive means T/C below 125%. Peptide text beside a SMILES is read from it. * marks the point of attachment. Boc = CC(C)(C)OC(=O)*

System: L1210 leukemia ip in BDF1 mice, survival T/C
Assay: NCI In Vivo Anticancer Drug Screen. Data for tumor model L1210 Leukemia (intraperitoneal) in B6D2F1 (BDF1) mice
Details: endpoint: mean survival time, higher = longer survival
Outline: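 Antitumor effect is assessed in tumor-bearing animals. Survival in the compound arm is compared with a vehicle-dosed control arm and expressed as their quotient.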

[1] = dose: 100.0 mg/kg/injection, schedule: Q01DX009 (ip), vehicle: Klucel (hydroxypropylcellulose) (HPC)
[2] = dose: 200.0 mg/kg/injection, schedule: Q01DX009 (ip), vehicle: Klucel (hydroxypropylcellulose) (HPC)
[3] = dose: 400.0 mg/kg/injection, schedule: Q01DX009 (ip), vehicle: Klucel (hydroxypropylcellulose) (HPC)
[4] = dose: 100.0 mg/kg/injection, schedule: Q04DX003 (ip), vehicle: Klucel (hydroxypropylcellulose) (HPC)
[5] = dose: 50.0 mg/kg/injection, schedule: Q01DX009 (ip), vehicle: saline
[6] = dose: 100.0 mg/kg/injection, schedule: Q01DX009 (ip), vehicle: saline
[7] = dose: 100.0 mg/kg/injection, schedule: Q04DX003 (ip), vehicle: saline
[8] = dose: 200.0 mg/kg/injection, schedule: Q04DX003 (ip), vehicle: saline
[9] = dose: 400.0 mg/kg/injection, schedule: Q04DX003 (ip), vehicle: saline

Measured: T/C

CCOC(=O)COc1ccc(Cl)cc1
inactive: [1] 97 % of control | [2] 103 % of control | [3] 92 % of control

CCC[CH2][Pb]([CH2]CCC)([CH2]CCC)[O]C(=O)CCl
inactive: dose: 1.56 mg/kg/injection, schedule: Q01DX009 (ip), vehicle: Klucel (hydroxypropylcellulose) (HPC) 98 % of control | dose: 3.13 mg/kg/injection, schedule: Q01DX009 (ip), vehicle: Klucel (hydroxypropylcellulose) (HPC) 104 % of control | dose: 6.25 mg/kg/injection, schedule: Q01DX009 (ip), vehicle: Klucel (hydroxypropylcellulose) (HPC) 94 % of control and 98 % of control | dose: 12.5 mg/kg/injection, schedule: Q04DX003 (ip), vehicle: Klucel (hydroxypropylcellulose) (HPC) 101 % of control | dose: 25.0 mg/kg/injection, schedule: Q04DX003 (ip), vehicle: Klucel (hydroxypropylcellulose) (HPC) 100 % of control

CCSC(C(OC(C)=O)C(OC(C)=O)C(OC(C)=O)C(COC(C)=O)OC(C)=O)n1cnc2c(=S)nc[nH]c21 (stereo not given)
inactive: dose: 100.0 mg/kg/injection, schedule: Q04DX003 (ip), vehicle: saline sonified 102 % of control | dose: 200.0 mg/kg/injection, schedule: Q04DX003 (ip), vehicle: saline sonified 96 % of control | dose: 400.0 mg/kg/injection, schedule: Q04DX003 (ip), vehicle: saline sonified 91 % of control

Nc1ccccc1C(=O)c1ccccc1
inactive: dose: 100.0 mg/kg/injection, schedule: Q01DX001 (ip), vehicle: Klucel (hydroxypropylcellulose) (HPC) 94 % of control | dose: 100.0 mg/kg/injection, schedule: Q01DX009 (ip), vehicle: saline with Tween-80 90 % of control | [4] 98 % of control | dose: 100.0 mg/kg/injection, schedule: Q04DX003 (ip), vehicle: saline with Tween-80 93 % of control | dose: 200.0 mg/kg/injection, schedule: Q01DX001 (ip), vehicle: Klucel (hydroxypropylcellulose) (HPC) 93 % of control | dose: 200.0 mg/kg/injection, schedule: Q01DX009 (ip), vehicle: saline with Tween-80 95 % of control | dose: 200.0 mg/kg/injection, schedule: Q04DX003 (ip), vehicle: Klucel (hydroxypropylcellulose) (HPC) 98 % of control | dose: 200.0 mg/kg/injection, schedule: Q04DX003 (ip), vehicle: saline with Tween-80 95 % of control | dose: 400.0 mg/kg/injection, schedule: Q04DX003 (ip), vehicle: saline with Tween-80 95 % of control

Nc1cc(=O)[nH]c(C(F)(F)F)n1
inactive: dose: 29.0 mg/kg/injection, schedule: Q01DX Z (ip), vehicle: saline 119 % of control | dose: 45.0 mg/kg/injection, schedule: Q01DX Z (ip), vehicle: saline 98 % of control | dose: 67.0 mg/kg/injection, schedule: Q01DX Z (ip), vehicle: saline 106 % of control | dose: 100.0 mg/kg/injection, schedule: Q01DX Z (ip), vehicle: saline 104 % of control

O=C1Cc2cccc(=O)c(O)c2C(=O)O1
inactive: dose: 25.0 mg/kg/injection, schedule: Q01DX009 (ip), vehicle: saline 97 % of control and 90 % of control | [5] 97 % of control and 92 % of control | [6] 96 % of control and 89 % of control | [7] 111 % of control and 100 % of control | [8] 97 % of control | [9] 89 % of control

C=CC(=O)c1c(O)cc(O)c2c1C(C)C(=O)O2 (stereo not given)
inactive: dose: 50.0 mg/kg/injection, schedule: Q01DX001 (ip), vehicle: saline 104 % of control | dose: 75.0 mg/kg/injection, schedule: Q01DX009 (ip), vehicle: Klucel (hydroxypropylcellulose) (HPC) 89 % of control | dose: 100.0 mg/kg/injection, schedule: Q01DX001 (ip), vehicle: saline 101 % of control | [4] 106 % of control | dose: 200.0 mg/kg/injection, schedule: Q01DX001 (ip), vehicle: saline 104 % of control

CN(N)C(=O)Nc1ccccc1[N+](=O)[O-]
inactive: dose: 75.0 mg/kg/injection, schedule: Q01DX001 (ip), vehicle: carboxymethylcellulose (CMC) 96 % of control | dose: 150.0 mg/kg/injection, schedule: Q01DX001 (ip), vehicle: carboxymethylcellulose (CMC) 102 % of control

CC(NS(=O)(=O)Cc1ccccc1)C(=O)O (stereo not given)
inactive: dose: 100.0 mg/kg/injection, schedule: Q01DX001 (ip), vehicle: other 96 % of control | dose: 100.0 mg/kg/injection, schedule: Q04DX003 (ip), vehicle: other 107 % of control | dose: 200.0 mg/kg/injection, schedule: Q01DX001 (ip), vehicle: other 95 % of control | dose: 200.0 mg/kg/injection, schedule: Q04DX003 (ip), vehicle: other 96 % of control | dose: 400.0 mg/kg/injection, schedule: Q01DX001 (ip), vehicle: other 104 % of control | dose: 400.0 mg/kg/injection, schedule: Q04DX003 (ip), vehicle: other 106 % of control

Cc1cccc(NC(=O)c2ccc(Cl)cc2)c1C
inactive: [1] 99 % of control | [7] 111 % of control | [2] 95 % of control | [8] 104 % of control | [3] 95 % of control | [9] 109 % of control

COC(=O)Cc1ccc([N+](=O)[O-])cc1[N+](=O)[O-]
inactive: [7] 101 % of control | [8] 102 % of control | [9] 93 % of control

CC(C)=CCCC1(C)C=Cc2c(c(C)cc3c4ccccc4n(C)c23)O1 (stereo not given)
inactive: dose: 25.0 mg/kg/injection, schedule: Q04DX002 (ip), vehicle: DMSO 96 % of control | dose: 50.0 mg/kg/injection, schedule: Q04DX002 (ip), vehicle: DMSO 89 % of control | dose: 100.0 mg/kg/injection, schedule: Q04DX002 (ip), vehicle: DMSO 99 % of control

Nc1cc(Cl)c(Cl)c(Cl)c1
inactive: dose: 88.8 mg/kg/injection, schedule: Q01DX001 (ip), vehicle: carboxymethylcellulose (CMC) 97 % of control and 100 % of control | dose: 100.0 mg/kg/injection, schedule: Q01DX001 (ip), vehicle: carboxymethylcellulose (CMC) 91 % of control | dose: 133.4 mg/kg/injection, schedule: Q01DX001 (ip), vehicle: carboxymethylcellulose (CMC) 94 % of control and 100 % of control | dose: 300.0 mg/kg/injection, schedule: Q01DX001 (ip), vehicle: carboxymethylcellulose (CMC) 97 % of control and 91 % of control | dose: 400.0 mg/kg/injection, schedule: Q01DX001 (ip), vehicle: carboxymethylcellulose (CMC) 91 % of control

N#CCc1ccccc1C(=O)O
inactive: dose: 100.0 mg/kg/injection, schedule: Q01DX009 (ip), vehicle: gum acacia 105 % of control | dose: 100.0 mg/kg/injection, schedule: Q04DX003 (ip), vehicle: gum acacia 96 % of control | dose: 200.0 mg/kg/injection, schedule: Q01DX009 (ip), vehicle: gum acacia 94 % of control | dose: 200.0 mg/kg/injection, schedule: Q04DX003 (ip), vehicle: gum acacia 91 % of control | dose: 400.0 mg/kg/injection, schedule: Q01DX009 (ip), vehicle: gum acacia 88 % of control | dose: 400.0 mg/kg/injection, schedule: Q04DX003 (ip), vehicle: gum acacia 97 % of control

COC(=O)C(Cc1ccccc1)NC(=O)C(Cc1ccccc1)NC(=O)OC(C)(C)C (stereo not drawn) (Boc-Phe-Phe-OMe; configuration not given here)
inactive: dose: 100.0 mg/kg/injection, schedule: Q04DX002 (ip), vehicle: Klucel (hydroxypropylcellulose) (HPC) 94 % of control | dose: 200.0 mg/kg/injection, schedule: Q04DX002 (ip), vehicle: Klucel (hydroxypropylcellulose) (HPC) 101 % of control | dose: 400.0 mg/kg/injection, schedule: Q04DX002 (ip), vehicle: Klucel (hydroxypropylcellulose) (HPC) 108 % of control

CCOP(=O)(SCC)N(CC)CC (stereo not given)
inactive: dose: 5.0 mg/kg/injection, schedule: Q01DX001 (ip), vehicle: saline 108 % of control | dose: 10.0 mg/kg/injection, schedule: Q01DX001 (ip), vehicle: saline 104 % of control | dose: 20.0 mg/kg/injection, schedule: Q01DX001 (ip), vehicle: saline 104 % of control | dose: 40.0 mg/kg/injection, schedule: Q01DX001 (ip), vehicle: saline 115 % of control | dose: 80.0 mg/kg/injection, schedule: Q01DX001 (ip), vehicle: saline 106 % of control

CC[N+]1=NC2CCCC(C2)C1 (stereo not given)
inactive: [5] 96 % of control | [6] 86 % of control | [7] 101 % of control | dose: 200.0 mg/kg/injection, schedule: Q01DX009 (ip), vehicle: saline 90 % of control | [8] 95 % of control

CCc1cccc(CC)c1N1C(=O)C=CC1=O
inactive: dose: 1.56 mg/kg/injection, schedule: Q01DX009 (ip), vehicle: other 102 % of control | dose: 3.13 mg/kg/injection, schedule: Q01DX009 (ip), vehicle: other 105 % of control | dose: 3.13 mg/kg/injection, schedule: Q04DX002 (ip), vehicle: other 87 % of control | dose: 6.25 mg/kg/injection, schedule: Q01DX009 (ip), vehicle: other 105 % of control | dose: 6.25 mg/kg/injection, schedule: Q04DX002 (ip), vehicle: other 93 % of control | dose: 12.5 mg/kg/injection, schedule: Q04DX002 (ip), vehicle: other 107 % of control
